# Test results from patent publication US11168072B2, “Crystal form of morpholino quinazoline compound, preparation method therefor and use thereof” (SHANGHAI YINGLI PHARMACEUTICAL CO., LTD, priority 2018, dated 2021).
# “Also recorded” adds a separate entry of the source.
# How the values were obtained:
# Assay type in all cases: physicochemical
# [1] = Stability under high temperature, high humidity, illumination (influencing factors); settings: for stability under illumination conditions (conclusion): illumination 4500±500 Lux; for changes in the appearance: illumination, high temperature (60° C.) and high humidity (25° C., RH75%) for 10 days
# Experimental: Appropriate amount of the samples of the crystal form I of the morpholino quinazoline compound represented by formula A were placed on culture dishes which were then left open under high temperature (40±2° C. and 60±2° C.), high humidity (25° C., RH75±5% and RH90±5%) and illumination (4500±500 Lux, 25° C.) conditions, respectively.
# Appropriate amount of the samples of the amorphous form of the morpholino quinazoline compound represented by formula A and the samples of the crystal form II of the morpholino quinazoline compound represented by formula A were placed on culture dishes respectively, which were then left open under high temperature (60±2° C.), high humidity (25° C., RH75±5%) and illumination (4500±500 Lux, 25° C.) conditions, respectively.
# [2] = Dynamic vapor sorption analysis (DVS); settings: for increase by mass compared to the initial mass (DVS weight gain): relative humidity from 0% to 95%
# Experimental: (§1) Dynamic vapor sorption analysis (DVS): about 10 mg of the sample was taken and dried for 60 minutes under a temperature set at 25° C. and a humidity of 0% RH, and then the moisture sorption characteristics of the sample when the humidity changed from 0% RH to 95% RH was tested, and the moisture desorption characteristics of the sample when the humidity changed from 95% RH to 0% RH was tested; the humidity change step was 5% RH; the value of the mass change rate dm/dt less than 0.002% was considered as balance equilibrium, the rate of mass change within 5 minutes less than 0.01%/minute was considered as the equilibrium standard in the testing process, and the maximum equilibrium time was 2 hours. The isothermal water adsorption/desorption characteristics under this test condition were determined and XRPD detection was performed on the samples after the DVS test.
# as §1, with “About” for “Dynamic vapor sorption analysis (DVS): about”
# [3] = Stability of crystal form in water and organic solvents at room temperature for 10 days (suspension, XRPD)
# Experimental: About 20 mg of solid samples of the crystal form I of the morpholino quinazoline compound represented by formula A were weighed respectively and placed into vials, 1 mL of water or organic solvent was added to the vials respectively, and sonicated for 5 min to obtain suspensions. The suspensions were spun at room temperature for 10 days and the filtered wet samples were characterized by XRPD.
# [4] = Stability in organic solvents with slurrying at high temperature for 18 hours (XRPD); settings: slurried in ethanol, isopropanol and n-heptane at 80° C. for 18 hours
# Experimental: To 5 g of the crystal form I of the morpholino quinazoline compound represented by formula A was added 10 g of ethanol, 10 g of isopropanol, and 10 g of n-heptane. The mixture was slurried at 80° C. for 18 hours, cooled to room temperature, filtered, and dried under vacuum at less than 85° C. for 16 hours to obtain about 4 g of sample.
# [5] = high temperature (60° C.) and high humidity (25° C., RH75%)
# [6] = illumination 4500 Lux ± 500 Lux, 25° C., 5 days
# [7] = illumination 4500 Lux ± 500 Lux, 25° C., 10 days
# [8] = illumination (4500±500 Lux, 25° C.)
# [9] = illumination 4500 Lux ± 500 Lux, 25° C., 1 month
smiles,measurement,setting,value
COc1ncc(-c2nc(N3CCOCC3)nc3c(CN4CCC(C(C)(C)O)CC4)cc(F)cc23)cc1NS(C)(=O)=O [Amorphous form],Content (%),[1]; 0 day,98.60%
same,Total impurities (%),[1]; 0 day,1.32%
same,Total impurities (%),"[1]; 25° C., RH 75 ± 5%, 5 days",1.37%
same,Total impurities (%),"[1]; 25° C., RH 75 ± 5%, 10 days",1.31%
same,Content (%),"[1]; 60° C., 5 days",98.43%
same,Content (%),"[1]; 60° C., 10 days",98.48%
same,Total impurities (%),"[1]; 60 ± 2° C., 5 days",1.54%
same,Total impurities (%),"[1]; 60 ± 2° C., 10 days",1.46%
same,Content (%),"[1]; 75% RH (25° C.), 5 days",98.51%
same,Content (%),"[1]; 75% RH (25° C.), 10 days",98.62%
same,change of total impurities content,[1]; [5],increases slightly
same,Content (%),[1]; [6],98.29%
same,Total impurities (%),[1]; [6],1.68%
same,Content (%),[1]; [7],97.80%
same,Total impurities (%),[1]; [7],2.16%
same,stability under illumination conditions (conclusion),[1]; 25° C.,unstable
same,change of total impurities content,[1]; [8],increases significantly
same,changes in the appearance,[1],no significant changes
COc1ncc(-c2nc(N3CCOCC3)nc3c(CN4CCC(C(C)(C)O)CC4)cc(F)cc23)cc1NS(C)(=O)=O [Crystal form II],Content (%),[1]; 0 day,96.65%
same,Total impurities (%),[1]; 0 day,3.28%
same,Total impurities (%),"[1]; 25° C., RH 75 ± 5%, 5 days",3.18%
same,Total impurities (%),"[1]; 25° C., RH 75 ± 5%, 10 days",3.61%
same,Content (%),"[1]; 60° C., 5 days",95.85%
same,Content (%),"[1]; 60° C., 10 days",97.0%
same,Total impurities (%),"[1]; 60 ± 2° C., 5 days",4.04%
same,Total impurities (%),"[1]; 60 ± 2° C., 10 days",2.97%
same,Content (%),"[1]; 75% RH (25° C.), 5 days",96.75%
same,Content (%),"[1]; 75% RH (25° C.), 10 days",96.24%
same,change of total impurities content,[1]; [5],increases slightly
same,Content (%),[1]; [6],96.26%
same,Total impurities (%),[1]; [6],3.64%
same,Content (%),[1]; [7],95.80%
same,Total impurities (%),[1]; [7],4.14%
same,stability under illumination conditions (conclusion),[1]; 25° C.,unstable
same,change of total impurities content,[1]; [8],increases significantly
same,changes in the appearance,[1],no significant changes
same,increase by mass compared to the initial mass (DVS weight gain),[2]; 25° C.,6.237%
same,increase by mass compared to the initial mass (DVS weight gain),"[2]; 25° C., listed as crystal type II",6.237%
same,weight gain of crystal form II relative to that of crystal form I,[2]; relative humidity from 0 to 95%,18 times
COc1ncc(-c2nc(N3CCOCC3)nc3c(CN4CCC(C(C)(C)O)CC4)cc(F)cc23)cc1NS(C)(=O)=O [Crystal form I],stability in water and organic solvents (conclusion),[3]; room temperature and high temperature,good stability
same,crystal form of filtered wet sample by XRPD,"[3]; suspension in water or organic solvents, room temperature, 10 days",did not change
same,X-ray powder diffraction pattern versus crystal form I of Example 1,[4],consistent
same,"stability under high temperature, high humidity and illumination conditions (conclusion)",[1],good stability
same,Moisture (%),[1]; 0 day,0.07%
same,Total impurities (%),[1]; 0 day,0.1%
same,Moisture (%),"[1]; 25° C., RH 75 ± 5%, 1 month",0.1%
same,Total impurities (%),"[1]; 25° C., RH 75 ± 5%, 1 month",0.1%
same,Moisture (%),"[1]; 25° C., RH 75 ± 5%, 5 days",0.1%
same,Total impurities (%),"[1]; 25° C., RH 75 ± 5%, 5 days",0.1%
same,Moisture (%),"[1]; 25° C., RH 75 ± 5%, 10 days",0.2%
same,Total impurities (%),"[1]; 25° C., RH 75 ± 5%, 10 days",0.1%
same,Moisture (%),"[1]; 25° C., RH 90 ± 5%, 1 month",0.1%
same,Total impurities (%),"[1]; 25° C., RH 90 ± 5%, 1 month",0.1%
same,Moisture (%),"[1]; 25° C., RH 90 ± 5%, 5 days",0.2%
same,Total impurities (%),"[1]; 25° C., RH 90 ± 5%, 5 days",0.1%
same,Moisture (%),"[1]; 25° C., RH 90 ± 5%, 10 days",0.2%
same,Total impurities (%),"[1]; 25° C., RH 90 ± 5%, 10 days",0.1%
same,Moisture (%),"[1]; 40 ± 2° C., 1 month",0.1%
same,Total impurities (%),"[1]; 40 ± 2° C., 1 month",0.1%
same,Moisture (%),"[1]; 40 ± 2° C., 5 days",0.1%
same,Total impurities (%),"[1]; 40 ± 2° C., 5 days",0.1%
same,Moisture (%),"[1]; 40 ± 2° C., 10 days",0.2%
same,Total impurities (%),"[1]; 40 ± 2° C., 10 days",0.1%
same,Moisture (%),"[1]; 60 ± 2° C., 1 month",0.1%
same,Total impurities (%),"[1]; 60 ± 2° C., 1 month",0.1%
same,Moisture (%),"[1]; 60 ± 2° C., 5 days",0.2%
same,Total impurities (%),"[1]; 60 ± 2° C., 5 days",0.1%
same,Moisture (%),"[1]; 60 ± 2° C., 10 days",0.2%
same,Total impurities (%),"[1]; 60 ± 2° C., 10 days",0.1%
same,Moisture (%),[1]; [9],0.1%
same,Total impurities (%),[1]; [9],0.2%
same,Moisture (%),[1]; [6],0.1%
same,Total impurities (%),[1]; [6],0.1%
same,Moisture (%),[1]; [7],0.1%
same,Total impurities (%),[1]; [7],0.1%
same,hygroscopicity (conclusion),[2],less hygroscopicity; also recorded: very low hygroscopicity
same,increase by mass compared to the initial mass (DVS weight gain),[2]; 25° C.,0.34%
same,increase by mass compared to the initial mass (DVS),"[2]; relative humidity from 0 to 90%, 25° C.",0.23%
